# Assay results: article PMC5855801, “Benzothiophenone Derivatives Targeting Mutant Forms of Estrogen Receptor-α in Hormone-Resistant Breast Cancers” (International Journal of Molecular Sciences, 2018)
# What was measured:
# [1] = molecular target: T1, full-length ERα (estrogen binding site) (Homo sapiens, UniProt P03372); assay: E2 displacement fluorescence polarization assay (PolarScreen ERα Competitor Green); details: highest concentration 6 µM, compared to positive control E2
# T1 construct: in the presence of 25 nM full-length ERα and 4.5 nM flourescein-E2; purchased Life Technologies P2698
# T1 sequence (P03372 1-595): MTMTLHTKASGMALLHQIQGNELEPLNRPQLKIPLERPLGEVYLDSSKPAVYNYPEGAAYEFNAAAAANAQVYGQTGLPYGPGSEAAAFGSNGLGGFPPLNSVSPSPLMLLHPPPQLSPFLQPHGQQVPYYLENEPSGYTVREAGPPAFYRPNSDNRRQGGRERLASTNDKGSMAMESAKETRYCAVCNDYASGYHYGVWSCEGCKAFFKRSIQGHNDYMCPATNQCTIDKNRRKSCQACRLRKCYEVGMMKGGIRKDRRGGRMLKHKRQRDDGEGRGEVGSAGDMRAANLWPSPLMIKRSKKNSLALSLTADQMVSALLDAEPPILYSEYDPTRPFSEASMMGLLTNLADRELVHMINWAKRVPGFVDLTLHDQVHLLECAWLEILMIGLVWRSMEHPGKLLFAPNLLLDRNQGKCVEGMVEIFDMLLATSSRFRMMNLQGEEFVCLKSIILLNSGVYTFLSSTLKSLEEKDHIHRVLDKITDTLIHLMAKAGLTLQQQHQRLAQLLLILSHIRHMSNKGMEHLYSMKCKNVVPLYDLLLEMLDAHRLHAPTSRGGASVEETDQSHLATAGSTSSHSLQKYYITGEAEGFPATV
# Method: It should be noted that selective estrogen receptor modulators (SERMs) such as tamoxifen displace co-activator protein from AF2 allosterically, i.e., by binding to the estrogen binding site (EBS). To ascertain whether VPC-16606 is not an EBS binder, 17 β-estradiol (E2) displacement was assessed with the Polar Screen Estrogen Receptor-α Competitor Green Assay Kit (P2698, Life Technologies, Carlsbad, CA, USA).
# E2 displacement was assessed with the PolarScreen ERα Competitor Assay Green kit (P2698; LifeTechnologies) as per the instructions of the manufacturer. Briefly, 50 µL of assay buffer containing VPC-16606 were added to a 50-μL mixture containing 2× full-length ERα and flourescein-E2 in each well of a […] black plate to obtain final concentrations of 0.2–6.3 μM of the test compound in the presence of 25 nM full-length ERα and 4.5 nM flourescein-E2. After 2 h, polarisation was measured on a Tecan F500 microplate reader.
# [2] = tested on: ERα-dependent genes pS2, PR, Cyclin D1 and CDC2; assay: qRT-PCR of ERα-dependent genes in TamR3 cells; assay type: cell-based, human; details: TamR3, 24 h, 1 nM E2
# Method: mRNA levels were analyzed after treatment of MCF7 and TamR3 cells for 24 h with the test compounds as described previously. The fold change in expression of the genes was calculated using the 2^−ΔΔCt method with GAPDH as the internal control.
# [3] = tested on: pS2, PR, Cyclin D1 and CDC2 proteins; assay: Western blotting in MCF7 cells; assay type: cell-based, human; details: MCF7, 24 h, effect at higher doses
# Method: Serum-starved MCF7 and TamR3 cells were seeded onto a six-well plate at a density of 6 × 10^5 cells/well and treated the following day with VPC-16606 in the presence of 1 nM E2. One micromolar OHT was used as the positive control. After 24 h, cells were lysed in 1× radioimmunoprecipitation assay (RIPA) buffer. Twenty five micrograms of protein were loaded into SDS-PAGE gels and transferred to PVDF membranes. Membranes were incubated with pS2, PR Cyclin D1 and CDC2 antibodies or control α-actin antibody. Bound antibodies were detected using HRP-conjugated secondary antibodies. Chemiluminescence was detected with an Amersham ECL detection kit (GE Healthcare Life Sciences, Chicago, IL, USA), and bands were visualised using the G:BOX imager (Syngene, Cambridge, UK).
smiles,measurement,setting,value
CC(=O)N(/N=C1\Sc2c(C)cccc2C1=O)c1ccccc1Cl [VPC-16606],Displacement of fluorescein labelled E2 (FL-E2) from the EBS,[1],minimal displacement
same,"mRNA levels of ERα-dependent genes pS2, PR, Cyclin D1 and CDC2",[2],significantly downregulates
same,"Expression of pS2, PR, Cyclin D1 and CDC2 proteins (Western blot)",[3],decreased expression
